Results reported in PubChem BioAssay AID248 (DTP/NCI, 2004).
Several values for one entry are separate records, joined by “and”; a condition that tells them apart may be missing. Equal values may be shown once. Toxic doses and inconclusive results are not listed.

Tested on: L1210 leukemia ip in BDF1 mice, survival T/C
Assay: NCI In Vivo Anticancer Drug Screen. Data for tumor model L1210 Leukemia (intraperitoneal) in B6D2F1 (BDF1) mice
Details: endpoint: mean survival time, higher = longer survival
Method in brief: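 Transplanted-tumor mice were given test agent; controls received vehicle only. Survival readings from the two groups were divided (treated over control).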

[1] = dose: 12.5 mg/kg/injection, schedule: Q01DX009 (ip), vehicle: saline with Tween-80
[2] = dose: 25.0 mg/kg/injection, schedule: Q01DX009 (ip), vehicle: saline with Tween-80
[3] = dose: 100.0 mg/kg/injection, schedule: Q04DX003 (ip), vehicle: saline with Tween-80
[4] = dose: 50.0 mg/kg/injection, schedule: Q01DX009 (ip), vehicle: Klucel (hydroxypropylcellulose) (HPC)
[5] = dose: 200.0 mg/kg/injection, schedule: Q01DX001 (ip), vehicle: saline
[6] = dose: 100.0 mg/kg/injection, schedule: Q04DX002 (ip), vehicle: saline
[7] = dose: 200.0 mg/kg/injection, schedule: Q04DX002 (ip), vehicle: saline
[8] = dose: 400.0 mg/kg/injection, schedule: Q04DX002 (ip), vehicle: saline
[9] = dose: 100.0 mg/kg/injection, schedule: Q01DX009 (ip), vehicle: Klucel (hydroxypropylcellulose) (HPC)
[10] = dose: 200.0 mg/kg/injection, schedule: Q01DX009 (ip), vehicle: Klucel (hydroxypropylcellulose) (HPC)
[11] = dose: 100.0 mg/kg/injection, schedule: Q01DX001 (ip), vehicle: saline
[12] = dose: 400.0 mg/kg/injection, schedule: Q01DX001 (ip), vehicle: saline
[13] = dose: 400.0 mg/kg/injection, schedule: Q01DX009 (ip), vehicle: Klucel (hydroxypropylcellulose) (HPC)

In the case of `COc1ccc2c(Nc3ccc(NS(C)(=O)=O)cc3)c3ccccc3nc2c1`, the T/C (dose: 6.25 mg/kg/injection, schedule: Q01DX009 (ip), vehicle: saline with Tween-80) is reported as 183 % of control, the T/C [1] is reported as 181 % of control and the T/C [2] is reported as 117 % of control. The T/C (dose: 25.0 mg/kg/injection, schedule: Q01DX009 (sc), vehicle: saline) was 164 % of control, the T/C (dose: 44.0 mg/kg/injection, schedule: Q04DX003 (ip), vehicle: saline with Tween-80) was 172 % of control and the T/C (dose: 50.0 mg/kg/injection, schedule: Q01DX009 (sc), vehicle: saline) was 95 % of control. For the same molecule, the T/C (dose: 67.0 mg/kg/injection, schedule: Q04DX003 (ip), vehicle: saline with Tween-80) was 169 % of control and the T/C [3] was 276 % of control.
For `CC1COC(Nc2cccc3c2CCCC3)=N1` (stereo unspecified), the T/C [1] was 103 % of control, the T/C [2] was 92 % of control and the T/C (dose: 50.0 mg/kg/injection, schedule: Q01DX009 (ip), vehicle: saline with Tween-80) was 90 % of control.
For `CCCC(=O)OC(OC(=O)CCC)c1cccc(OC(=O)CC)c1`, the T/C (dose: 222.0 mg/kg/injection, schedule: Q01DX Z (ip), vehicle: methylcellulose (MC)) was 96 % of control, the T/C (dose: 333.0 mg/kg/injection, schedule: Q01DX Z (ip), vehicle: methylcellulose (MC)) was 104 % of control and the T/C (dose: 500.0 mg/kg/injection, schedule: Q01DX Z (ip), vehicle: methylcellulose (MC)) was 105 % of control.
With `CN(C)C(N)=Nc1ccc(Cl)cc1` the T/C (dose: 12.5 mg/kg/injection, schedule: Q01DX009 (ip), vehicle: Klucel (hydroxypropylcellulose) (HPC)) was 97 % of control, the T/C (dose: 25.0 mg/kg/injection, schedule: Q01DX009 (ip), vehicle: Klucel (hydroxypropylcellulose) (HPC)) was 98 % of control and the T/C [4] was 89 % of control.
`c1ccc2cc(CCSSCCc3ccc4ccccc4c3)ccc2c1` was tested, and the T/C [5] was 87 % of control.
`O=C1c2ccccc2-c2c(I)cccc21` was tested, and the T/C (dose: 25.6 mg/kg/injection, schedule: Q04DX002 (ip), vehicle: saline with Tween-80) was 94 % of control, the T/C (dose: 64.0 mg/kg/injection, schedule: Q04DX002 (ip), vehicle: saline with Tween-80) was 94 % of control and the T/C (dose: 160.0 mg/kg/injection, schedule: Q04DX002 (ip), vehicle: saline with Tween-80) was 98 % of control. The T/C (dose: 400.0 mg/kg/injection, schedule: Q04DX002 (ip), vehicle: saline with Tween-80) was 94 % of control.
In the case of `Cn1c(C(C)(C)O)cc2ccccc21`, the T/C [3] is reported as 102 % of control, the T/C (dose: 200.0 mg/kg/injection, schedule: Q04DX003 (ip), vehicle: saline with Tween-80) is reported as 107 % of control and the T/C (dose: 400.0 mg/kg/injection, schedule: Q04DX003 (ip), vehicle: saline with Tween-80) is reported as 100 % of control.
In the case of `Nc1ccc(S(=O)(=O)F)cc1N`, the T/C (dose: 100.0 mg/kg/injection, schedule: Q01DX001 (ip), vehicle: acetone) is reported as 101 % of control, the T/C (dose: 100.0 mg/kg/injection, schedule: Q01DX009 (ip), vehicle: acetone) is reported as 96 % of control and the T/C (dose: 200.0 mg/kg/injection, schedule: Q01DX001 (ip), vehicle: acetone) is reported as 101 % of control. For the same molecule, the T/C (dose: 200.0 mg/kg/injection, schedule: Q01DX009 (ip), vehicle: acetone) was 93 % of control and the T/C (dose: 400.0 mg/kg/injection, schedule: Q01DX001 (ip), vehicle: acetone) was 103 % of control.
In the case of `COC(=O)C(Cc1c[nH]c2ccccc12)NC(=O)CNC(=O)OCc1ccccc1` (stereo unspecified), the T/C (dose: 100.0 mg/kg/injection, schedule: Q04DX003 (ip), vehicle: other) is reported as 98 % of control, the T/C (dose: 200.0 mg/kg/injection, schedule: Q04DX003 (ip), vehicle: other) is reported as 102 % of control and the T/C (dose: 400.0 mg/kg/injection, schedule: Q04DX003 (ip), vehicle: other) is reported as 98 % of control.
`c1ccc(CCN2CCCCC2)nc1` was tested, and the T/C (dose: 1.56 mg/kg/injection, schedule: Q01DX009 (ip), vehicle: saline) was 94 % of control, the T/C (dose: 3.13 mg/kg/injection, schedule: Q01DX009 (ip), vehicle: saline) was 93 % of control and the T/C (dose: 6.25 mg/kg/injection, schedule: Q01DX009 (ip), vehicle: saline) was 89 % of control.
With `O=C(/C=C/C=[N+](/[O-])O)c1cncc(F)c1` the T/C [6] was 93 % of control, the T/C [7] was 101 % of control and the T/C [8] was 93 % of control.
With `CCOc1ccc(OCC)c(NC(=O)Nc2cc([N+](=O)[O-])ccc2OC)c1` the T/C [4] was 114 % of control, the T/C [9] was 93 % of control and the T/C [10] was 96 % of control.
In the case of `CCCCCCCCCOc1ccc(C=O)cc1OC`, the T/C (dose: 100.0 mg/kg/injection, schedule: Q01DX001 (ip), vehicle: Klucel (hydroxypropylcellulose) (HPC)) is reported as 93 % of control, the T/C (dose: 200.0 mg/kg/injection, schedule: Q01DX001 (ip), vehicle: Klucel (hydroxypropylcellulose) (HPC)) is reported as 102 % of control and the T/C (dose: 400.0 mg/kg/injection, schedule: Q01DX001 (ip), vehicle: Klucel (hydroxypropylcellulose) (HPC)) is reported as 100 % of control.
With `Cc1ccc(C(/C=C/c2ccccc2)=N\N=C(N)N)cc1` the T/C (dose: 15.0 mg/kg/injection, schedule: Q01DX Z (ip), vehicle: methylcellulose (MC)) was 87 % of control, the T/C (dose: 30.0 mg/kg/injection, schedule: Q01DX Z (ip), vehicle: methylcellulose (MC)) was 87 % of control and the T/C (dose: 30.0 mg/kg/injection, schedule: Q01DX Z (oral), vehicle: methylcellulose (MC)) was 93 % of control. The T/C (dose: 60.0 mg/kg/injection, schedule: Q01DX Z (ip), vehicle: methylcellulose (MC)) was 97 % of control, the T/C (dose: 60.0 mg/kg/injection, schedule: Q01DX Z (oral), vehicle: methylcellulose (MC)) was 87 % of control and the T/C (dose: 120.0 mg/kg/injection, schedule: Q01DX Z (oral), vehicle: methylcellulose (MC)) was 95 % of control. For the same molecule, the T/C (dose: 240.0 mg/kg/injection, schedule: Q01DX Z (oral), vehicle: methylcellulose (MC)) was 95 % of control and the T/C (dose: 480.0 mg/kg/injection, schedule: Q01DX Z (oral), vehicle: methylcellulose (MC)) was 100 % of control.
In the case of `O=C(Nc1cccc2cccnc12)C(F)(F)F`, the T/C (dose: 50.0 mg/kg/injection, schedule: Q01DX001 (ip), vehicle: saline) is reported as 91 % of control, the T/C [11] is reported as 104 % of control and the T/C [5] is reported as 91 % of control. For the same molecule, the T/C [12] was 93 % of control.
In the case of `CN(C)CCSCCN1c2ccccc2Sc2ccc(Cl)cc21`, the T/C (dose: 100.0 mg/kg/injection, schedule: Q04DX003 (ip), vehicle: saline) is reported as 104 % of control.
With `O=C(O)C(F)(F)C(F)(Cl)C(F)(F)C(F)(Cl)C(F)(F)C(F)(Cl)C(F)(F)Cl` (stereo unspecified) the T/C [11] was 96 % of control and 90 % of control, the T/C [5] was 110 % of control and 93 % of control and the T/C [12] was 107 % of control.
With `CCOC(=O)N(Cl)Cl` the T/C (dose: 3.13 mg/kg/injection, schedule: Q04DX003 (ip), vehicle: saline) was 105 % of control, the T/C (dose: 6.25 mg/kg/injection, schedule: Q04DX003 (ip), vehicle: saline) was 98 % of control and the T/C (dose: 12.5 mg/kg/injection, schedule: Q04DX003 (ip), vehicle: saline) was 98 % of control.
`C1=CN2CCCN3C=CC=c4ccc(c2c43)=C1` was tested, and the T/C (dose: 7.5 mg/kg/injection, schedule: Q01DX009 (ip), vehicle: saline) was 100 % of control and the T/C (dose: 15.0 mg/kg/injection, schedule: Q01DX009 (ip), vehicle: saline) was 98 % of control.
With `CCCC1(CCC)NC(=O)N(CC(=O)OCC)C1=O` the T/C (dose: 100.0 mg/kg/injection, schedule: Q01DX009 (ip), vehicle: saline with Tween-80) was 94 % of control, the T/C (dose: 200.0 mg/kg/injection, schedule: Q01DX009 (ip), vehicle: saline with Tween-80) was 96 % of control and the T/C (dose: 400.0 mg/kg/injection, schedule: Q01DX009 (ip), vehicle: saline with Tween-80) was 102 % of control.
`COc1ccccc1C=O` was tested, and the T/C [9] was 90 % of control, the T/C [10] was 90 % of control and the T/C [13] was 106 % of control.
`COC(=O)c1cc(C)c(I)c([N+](=O)[O-])c1` was tested, and the T/C [9] was 109 % of control, the T/C [10] was 102 % of control and the T/C [13] was 98 % of control.
For `CCCCCCCCCCCCC(=O)N1CCCC1`, the T/C [6] was 104 % of control, the T/C [7] was 104 % of control and the T/C [8] was 96 % of control.
In the case of `CCOC(=O)C1(C(=O)OCC)CCC2Nc3ccccc3C(=O)N21` (stereo unspecified), the T/C (dose: 50.0 mg/kg/injection, schedule: Q04DX003 (ip), vehicle: Klucel (hydroxypropylcellulose) (HPC)) is reported as 99 % of control, the T/C (dose: 100.0 mg/kg/injection, schedule: Q04DX003 (ip), vehicle: Klucel (hydroxypropylcellulose) (HPC)) is reported as 101 % of control and the T/C (dose: 200.0 mg/kg/injection, schedule: Q04DX003 (ip), vehicle: Klucel (hydroxypropylcellulose) (HPC)) is reported as 87 % of control.
`COc1ccc(C)cc1NC(=O)Nc1cccc(F)c1` was tested, and the T/C [9] was 106 % of control, the T/C [10] was 111 % of control and the T/C [13] was 106 % of control.
For `CCc1c(Nc2ccc(Cl)c(Cl)c2)[nH]c(N)nc1=S`, the T/C (dose: 100.0 mg/kg/injection, schedule: Q01DX Z (ip), vehicle: methylcellulose (MC)) was 90 % of control and the T/C (dose: 200.0 mg/kg/injection, schedule: Q01DX Z (ip), vehicle: methylcellulose (MC)) was 105 % of control.
